From patent publication US4639433A, “Glycopeptide derivatives” (Eli Lilly and Company, priority 1985, dated 1987)
Values after ≈ are worked out from the molar mass of the structure shown.

Tests used:
[1] = test system: Staphylococcus aureus; assay: Experimental bacterial infection in mice, ED50; format: in vivo; settings: two doses, administered subcutaneously
[2] = test system: Streptococcus pyogenes; assay: Experimental bacterial infection in mice, ED50; format: in vivo; settings: two doses, administered subcutaneously
[3] = test system: Streptococcus pneumoniae; assay: Experimental bacterial infection in mice, ED50; format: in vivo; settings: two doses, administered subcutaneously
[4] = test system: Staphylococcus aureus NRRL B313; settings: agar dilution
[5] = test system: Staphylococcus aureus V41; settings: agar dilution
[6] = test system: Staphylococcus aureus X400; settings: agar dilution
[7] = test system: Staphylococcus aureus S13E; settings: agar dilution
[8] = test system: Staphylococcus epidermidis EPI1; settings: agar dilution
[9] = test system: Staphylococcus epidermidis 222; settings: agar dilution
[10] = test system: Streptococcus pyogenes C203; settings: agar dilution
[11] = test system: Streptococcus pneumoniae Park 1; settings: agar dilution
[12] = test system: Streptococcus faecium ATCC 9790; settings: agar dilution
[13] = test system: Streptococcus sp. group D 2041; settings: agar dilution
[14] = test system: Haemophilus influenzae C.L.; settings: agar dilution
[15] = test system: Haemophilus influenzae 76; settings: agar dilution
[16] = test system: Escherichia coli N10; settings: agar dilution
[17] = test system: Escherichia coli EC14; settings: agar dilution
[18] = test system: Escherichia coli TEM; settings: agar dilution
[19] = test system: Klebsiella pneumoniae X26; settings: agar dilution
[20] = test system: Klebsiella pneumoniae X68; settings: agar dilution
[21] = test system: Klebsiella pneumoniae KAE; settings: agar dilution

SMILES	ED50 [1]	ED50 [2]	ED50 [3]	MIC [4]	MIC [5]	MIC [6]	MIC [7]	MIC [8]	MIC [9]	MIC [10]	MIC [11]	MIC [12]	MIC [13]	MIC [14]	MIC [15]	MIC [16]	MIC [17]	MIC [18]	MIC [19]	MIC [20]	also measured
CCCCCCCCCC(=O)NC1(C)CC(OC2C(Oc3c4cc5cc3Oc3ccc(cc3Cl)C(O)C3NC(=O)C(NC(=O)C5NC(=O)C(CC(N)=O)NC(=O)C(NC(=O)C(CC(C)C)NC)C(O)c5ccc(c(Cl)c5)O4)c4ccc(O)c(c4)-c4c(O)cc(O)cc4C(C(=O)O)NC3=O)OC(CO)C(O)C2O)OC(C)C1O (stereo not drawn) [Compound 6, N^van-(1-oxo-n-Decyl)vancomycin]	5 mg/kg/2	2.9 mg/kg/2	1.4 mg/kg/2	0.5 mg/L (≈ 0.312 µM)	0.5 mg/L (≈ 0.312 µM)	0.5 mg/L (≈ 0.312 µM)	0.5 mg/L (≈ 0.312 µM)	2 mg/L (≈ 1.25 µM)	1 mg/L (≈ 0.624 µM)	0.5 mg/L (≈ 0.312 µM)	1 mg/L (≈ 0.624 µM)	0.5 mg/L (≈ 0.312 µM)	1 mg/L (≈ 0.624 µM)	-- (not active at 128 mcg/ml)	-- (not active at 128 mcg/ml)	-- (not active at 128 mcg/ml)	-- (not active at 128 mcg/ml)	-- (not active at 128 mcg/ml)	-- (not active at 128 mcg/ml)	-- (not active at 128 mcg/ml)	MIC [21]: -- (not active at 128 mcg/ml)
CCCC(=O)NC1(C)CC(OC2C(Oc3c4cc5cc3Oc3ccc(cc3Cl)C(O)C3NC(=O)C(NC(=O)C5NC(=O)C(CC(N)=O)NC(=O)C(NC(=O)C(CC(C)C)NC)C(O)c5ccc(c(Cl)c5)O4)c4ccc(O)c(c4)-c4c(O)cc(O)cc4C(C(=O)O)NC3=O)OC(CO)C(O)C2O)OC(C)C1O (stereo not drawn) [Compound 1, N^van --(1-oxo-n-butyl)vancomycin]	6.3 mg/kg/2	5.5 mg/kg/2	3.6 mg/kg/2	2 mg/L (≈ 1.32 µM)	2 mg/L (≈ 1.32 µM)	2 mg/L (≈ 1.32 µM)	2 mg/L (≈ 1.32 µM)	8 mg/L (≈ 5.27 µM)	4 mg/L (≈ 2.63 µM)	1 mg/L (≈ 0.658 µM)	1 mg/L (≈ 0.658 µM)	2 mg/L (≈ 1.32 µM)	8 mg/L (≈ 5.27 µM)	-- (not active at 128 mcg/ml)	-- (not active at 128 mcg/ml)	-- (not active at 128 mcg/ml)	-- (not active at 128 mcg/ml)	-- (not active at 128 mcg/ml)	-- (not active at 128 mcg/ml)	-- (not active at 128 mcg/ml)	MIC [21]: -- (not active at 128 mcg/ml)
C=CCCCCCCCCC(=O)NC1(C)CC(OC2C(Oc3c4cc5cc3Oc3ccc(cc3Cl)C(O)C3NC(=O)C(NC(=O)C5NC(=O)C(CC(N)=O)NC(=O)C(NC(=O)C(CC(C)C)NC)C(O)c5ccc(c(Cl)c5)O4)c4ccc(O)c(c4)-c4c(O)cc(O)cc4C(C(=O)O)NC3=O)OC(CO)C(O)C2O)OC(C)C1O (stereo not drawn) [Compound 9, N^van --(1-oxo-10-n-decenyl)vancomycin]	3.7 mg/kg/2	1.9 mg/kg/2	1.8 mg/kg/2	0.5 mg/L (≈ 0.309 µM)	0.5 mg/L (≈ 0.309 µM)	0.5 mg/L (≈ 0.309 µM)	0.5 mg/L (≈ 0.309 µM)	2 mg/L (≈ 1.24 µM)	0.5 mg/L (≈ 0.309 µM)	0.25 mg/L (≈ 0.155 µM)	0.25 mg/L (≈ 0.155 µM)	0.25 mg/L (≈ 0.155 µM)	1 mg/L (≈ 0.619 µM)	-- (not active at 128 mcg/ml)	128 mg/L (≈ 79.2 µM)	-- (not active at 128 mcg/ml)	-- (not active at 128 mcg/ml)	-- (not active at 128 mcg/ml)	-- (not active at 128 mcg/ml)	-- (not active at 128 mcg/ml)	MIC [21]: -- (not active at 128 mcg/ml)
CCCCCCCCCCCCCC(=O)NC1(C)CC(OC2C(Oc3c4cc5cc3Oc3ccc(cc3Cl)C(O)C3NC(=O)C(NC(=O)C5NC(=O)C(CC(N)=O)NC(=O)C(NC(=O)C(CC(C)C)NC)C(O)c5ccc(c(Cl)c5)O4)c4ccc(O)c(c4)-c4c(O)cc(O)cc4C(C(=O)O)NC3=O)OC(CO)C(O)C2O)OC(C)C1O (stereo not drawn) [Compound 14, N^van --(1-oxo-n-tetradecyl)vancomycin]	6.6 mg/kg/2	1.4 mg/kg/2	1.3 mg/kg/2	2 mg/L (≈ 1.21 µM)	2 mg/L (≈ 1.21 µM)	2 mg/L (≈ 1.21 µM)	0.5 mg/L (≈ 0.301 µM)	8 mg/L (≈ 4.82 µM)	2 mg/L (≈ 1.21 µM)	2 mg/L (≈ 1.21 µM)	2 mg/L (≈ 1.21 µM)	0.5 mg/L (≈ 0.301 µM)	0.5 mg/L (≈ 0.301 µM)	128 mg/L (≈ 77.1 µM)	128 mg/L (≈ 77.1 µM)	-- (not active at 128 mcg/ml)	-- (not active at 128 mcg/ml)	-- (not active at 128 mcg/ml)	-- (not active at 128 mcg/ml)	-- (not active at 128 mcg/ml)	MIC [21]: -- (not active at 128 mcg/ml)
